Measurements taken from patent US8383785B2, “Anti-bacterial activity of 9-hydroxy derivatives of 6,11-bicyclolides” (Enanta Pharmaceuticals, Inc., priority 2008, dated 2013).

Key:
[1] = tested on: H. influenzae strain 33929; test: MIC by micro-dilution method, H. influenzae strain 33929; format: cell-based, Haemophilus influenzae; conditions: compounds of the invention (scaffold drawing 61, 9-hydroxy); 24 hours, 35+/-2° C.
Procedure: (§1) Susceptibility tests can be used to quantitatively measure the in vitro activity of an antimicrobial agent against a given bacterial isolate. Compounds are tested for in vitro antibacterial activity by a micro-dilution method. Minimal Inhibitory Concentration (MIC) is determined in 96 well microtiter plates utilizing the appropriate broth medium for the observed bacterial isolates. Antimicrobial agents are serially diluted (2-fold) in DMSO to produce a concentration range from about 64 μg/ml to about 0.03 μg/ml. The diluted compounds (2 μl/well) are then transferred into sterile, uninoculated medium (0.2 mL) by use of a 96 fixed tip-pipetting station. The inoculum for each bacterial strain is standardized to approximately 5×10^5 CFU/mL by optical comparison to a 0.5 McFarland turbidity standard. The plates are inoculated with 10 μl/well of adjusted bacterial inoculum. The 96 well plates are covered and incubated at 35+/−2° C. for 24 hours in ambient air environment. Following incubation, plate wells are visually examined by Optical Density measurement for the presence of growth (turbidity). The lowest concentration of an antimicrobial agent at which no visible growth occurs is defined as the MIC.
(§2) All in vitro testing follows the guidelines described in the Approved Standards M7-A7 protocol, published by the Clinical Laboratory Standards Institute (CLSI).
(§3) Table II below provides MIC data for compounds of the invention and related species from U.S. Pat. No. 6,878,691 and US Published Application No. 2009/0118506, each of which is incorporated herein by reference. The values in the table are minimum inhibition concentration (MIC) and are expressed as ug/mL.

[2] = tested on: H. influenzae strain 49247; test: MIC by micro-dilution method, H. influenzae strain 49247; format: cell-based, Haemophilus influenzae; conditions: compounds of the invention (scaffold drawing 61, 9-hydroxy); 24 hours, 35+/-2° C.
Procedure: as §1, §2, §3

| H. influenzae MIC strain 33929 [1] [mg/L] | H. influenzae MIC strain 49247 [2] [mg/L] | SMILES |
| --- | --- | --- |
| 1 | 1 | CC[C@H]1OC(=O)[C@H](C)C(=O)[C@H](C)[C@@H](O[C@@H]2O[C@H](C)C[C@H](N(C)C)[C@H]2O)[C@@]2(C)C[C@@H](C)[C@H](O)[C@H](C)C(OCC(=NOCc3cccc(-c4cccc(N)n4)n3)CO2)[C@]1(C)O [Compound 6] |
| 2 | 2 | CC[C@H]1OC(=O)[C@H](C)C(=O)[C@H](C)[C@@H](O[C@@H]2O[C@H](C)C[C@H](N(C)C)[C@H]2O)[C@@]2(C)C[C@@H](C)[C@H](O)[C@H](C)C(OCC(=NOCc3ccc(-n4ccc(N)n4)cn3)CO2)[C@]1(C)O [Compound 5] |
| 1 | 1 | CC[C@H]1OC(=O)[C@H](C)C(=O)[C@H](C)[C@@H](O[C@@H]2O[C@H](C)C[C@H](N(C)C)[C@H]2O)[C@@]2(C)C[C@@H](C)[C@H](O)[C@H](C)C(OCC(=NOCc3csc(-c4cccc(N)n4)n3)CO2)[C@]1(C)O [Compound 9] |
| 1 | 1 | CC[C@H]1OC(=O)[C@H](C)C(=O)[C@H](C)[C@@H](O[C@@H]2O[C@H](C)C[C@H](N(C)C)[C@H]2O)[C@@]2(C)C[C@@H](C)[C@H](O)[C@H](C)C(OCC(=NOCc3ccc(-c4ccno4)nc3)CO2)[C@]1(C)O [Compound 4] |
| 2 | 1 | CCC1OC(=O)C(C)(F)C(=O)C(C)C(OC2OC(C)CC(N(C)C)C2O)C2(C)CC(C)C(O)C(C)C(OCC(=NOCc3ccc(-c4nc(N)cs4)nc3)CO2)C1(C)O (mixture of isomers) [Compound 18] |
| 1 | 1 | CCC1OC(=O)C(C)(F)C(=O)C(C)C(OC2OC(C)CC(N(C)C)C2O)C2(C)CC(C)C(O)C(C)C(OCC(=NOCc3csc(-c4cccc(N)n4)n3)CO2)C1(C)O (mixture of isomers) [Compound 17] |
| 1 | 1 | CC[C@H]1OC(=O)[C@@](C)(F)C(=O)[C@H](C)[C@@H](O[C@@H]2O[C@H](C)C[C@H](N(C)C)[C@H]2O)[C@@]2(C)C[C@@H](C)[C@H](O)[C@H](C)C(OCC(=NOCc3ncc(-c4cccc(N)n4)s3)CO2)[C@]1(C)O [Compound 11] |
| 4 | 4 | CCC1OC(=O)C(C)(F)C(=O)C(C)C(OC2OC(C)CC(N(C)C)C2O)C2(C)CC(C)C(O)C(C)C(OCC(=NOCc3ccc(-c4nc(N)cs4)cc3)CO2)C1(C)O (mixture of isomers) [Compound 15] |
| 2 | 1 | CCC1OC(=O)C(C)(F)C(=O)C(C)C(OC2OC(C)CC(N(C)C)C2O)C2(C)CC(C)C(O)C(C)C(OCC(=NOCc3coc(-c4cccc(N)n4)n3)CO2)C1(C)O (mixture of isomers) [Compound 14] |
| 1 | 1 | CC[C@H]1OC(=O)[C@H](C)C(=O)[C@H](C)[C@@H](O[C@@H]2O[C@H](C)C[C@H](N(C)C)[C@H]2O)[C@@]2(C)C[C@@H](C)[C@H](O)[C@H](C)C(OCC(=NOCc3ccc(-c4nc(N)ns4)cn3)CO2)[C@]1(C)O [Compound 2] |
| 4 | 1 | CC[C@H]1OC(=O)[C@@](C)(F)C(=O)[C@H](C)[C@@H](O[C@@H]2O[C@H](C)C[C@H](N(C)C)[C@H]2O)[C@@]2(C)C[C@@H](C)[C@H](O)[C@H](C)C(OCC(=NOCc3ccc(-c4nc(N)cs4)cn3)CO2)[C@]1(C)O [Compound 10] |
| 1 | 1 | CC[C@H]1OC(=O)[C@H](C)C(=O)[C@H](C)[C@@H](O[C@@H]2O[C@H](C)C[C@H](N(C)C)[C@H]2O)[C@@]2(C)C[C@@H](C)[C@H](O)[C@H](C)C(OCC(=NOCc3ccc(-n4ccc(N)n4)nc3)CO2)[C@]1(C)O [Compound 7] |
| 2 | 1 | CC[C@H]1OC(=O)[C@@](C)(F)C(=O)[C@H](C)[C@@H](O[C@@H]2O[C@H](C)C[C@H](N(C)C)[C@H]2O)[C@@]2(C)C[C@@H](C)[C@H](O)[C@H](C)C(OCC(=NOCc3cnc(-c4cccc(N)n4)s3)CO2)[C@]1(C)O [Compound 12] |
| 2 | 1 | CCC1OC(=O)C(C)(F)C(=O)C(C)C(OC2OC(C)CC(N(C)C)C2O)C2(C)CC(C)C(O)C(C)C(OCC(=NOCc3ccc(-c4ccno4)nc3)CO2)C1(C)O (mixture of isomers) [Compound 13] |
| 2 | 1 | CC[C@H]1OC(=O)[C@H](C)C(=O)[C@H](C)[C@@H](O[C@@H]2O[C@H](C)C[C@H](N(C)C)[C@H]2O)[C@@]2(C)C[C@@H](C)[C@H](O)[C@H](C)C(OCC(=NOCc3ncc(-c4cccc(N)n4)s3)CO2)[C@]1(C)O [Compound 8] |

| SMILES | H. influenzae MIC strain 33929 [1] [mg/L] | H. influenzae MIC strain 49247 [2] [mg/L] |
| --- | --- | --- |
| CCC1OC(=O)C(C)(F)C(=O)C(C)C(OC2OC(C)CC(N(C)C)C2O)C2(C)CC(C)C(O)C(C)C(OCC(=NOCc3ccc(-c4nccs4)cn3)CO2)C1(C)O (mixture of isomers) [Compound 16] | 2 | – |
| CC[C@H]1OC(=O)[C@H](C)C(=O)[C@H](C)[C@@H](O[C@@H]2O[C@H](C)C[C@H](N(C)C)[C@H]2O)[C@@]2(C)C[C@@H](C)[C@H](O)[C@H](C)C(OCC(=NOCc3ccc(-c4nc(N)cs4)cn3)CO2)[C@]1(C)O [Compound 3] | 4 | 2 |
